Literature values, collected in patent publication US20060057174A1, “Natural-non-toxic insect repellant” (priority 2004, published 2006).

System: Aedes aegypti
Settings: ingredients of Skin-So-Soft bath oil

Question: With `O=C(c1ccccc1)c1ccccc1` [benzophenone] as the molecule, how does the “repellent to Aedes aegypti” value read?
Answer: repellent

Question: With `CC(C)OC(=O)CCCCC(=O)OC(C)C` [diisopropyl adipate] as the molecule, how does the “repellent to Aedes aegypti” value read?
Answer: repellent
